Measurements taken from patent US12441689B2 (EpiVario, Inc., priority 2019, dated 2025).

Molecular target: human ACSS2 protein (Homo sapiens (Human), UniProt Q9NR19)
Experiment: ACSS2 Cell-Free Activity Assay (Cell-Free IC50)
Conditions: 10 nM human ACSS2 protein, 90 minutes at 37 C, pyrophosphatase-coupled, Biomol Green absorbance at 620 nm; read-out: ACSS2 Biochemical IC50
Source text: ACSS2 Cell-Free Activity Assay (Cell-Free IC50)

Chain of human ACSS2 protein (Q9NR19 whole entry): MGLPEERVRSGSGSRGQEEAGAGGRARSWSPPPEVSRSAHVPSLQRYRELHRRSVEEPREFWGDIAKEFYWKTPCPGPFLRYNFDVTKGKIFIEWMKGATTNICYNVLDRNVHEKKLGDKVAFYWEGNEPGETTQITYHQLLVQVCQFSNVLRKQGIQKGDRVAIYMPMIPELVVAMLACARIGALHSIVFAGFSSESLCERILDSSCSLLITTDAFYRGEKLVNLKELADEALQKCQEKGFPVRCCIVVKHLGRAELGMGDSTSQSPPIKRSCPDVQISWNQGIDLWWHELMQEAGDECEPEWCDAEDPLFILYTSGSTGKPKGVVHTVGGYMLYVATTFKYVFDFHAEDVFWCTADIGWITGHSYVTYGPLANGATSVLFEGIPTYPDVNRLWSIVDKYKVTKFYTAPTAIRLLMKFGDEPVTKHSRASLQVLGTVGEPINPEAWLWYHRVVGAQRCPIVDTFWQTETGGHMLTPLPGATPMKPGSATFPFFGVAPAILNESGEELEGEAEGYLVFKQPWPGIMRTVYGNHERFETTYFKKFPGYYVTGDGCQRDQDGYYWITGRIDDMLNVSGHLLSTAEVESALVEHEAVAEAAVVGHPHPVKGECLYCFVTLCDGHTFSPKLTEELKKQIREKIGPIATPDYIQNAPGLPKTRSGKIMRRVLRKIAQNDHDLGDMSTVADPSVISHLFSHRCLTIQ

Row | Molecule | IC50
1 | CCC(F)(F)c1cccc(NC(=O)c2nc(-c3ccc(OC(F)F)c(-c4ccccc4)c3)oc2C)c1 [Compound 123, 2-[4-(difluoromethoxy)-3-phenyl-phenyl]-N-[3-(1,1-difluoropropyl)phenyl]-5-methyl-oxazole-4-carboxamide] | > 100 nM
2 | CCC(F)(F)c1cccc(NC(=O)c2cc(C)nc(-c3ccc(OC(F)F)c(-c4ccccc4)c3)n2)c1 [Compound 127, 2-(6-(difluoromethoxy)-[1,1′-biphenyl]-3-yl)-N-(3-(1,1-difluoropropyl)phenyl)-6-methylpyrimidine-4-carboxamide] | > 100 nM
3 | Cc1nn(-c2ccc(OC(F)F)cc2)c(OC(=O)N2CCN(C(C)(C)CO)CC2)c1C(=O)Nc1cccc(C(C)(F)F)c1 [Compound 185, 4-((3-(1,1-difluoroethyl)phenyl)carbamoyl)-1-(4-(difluoromethoxy)phenyl)-3-methyl-1H-pyrazol-5-yl 4-(1-hydroxy-2-methylpropan-2-yl)piperazine-1-carboxylate] | > 100 nM
4 | Cc1nc(-c2ccc(OC(F)F)c(-c3ccccn3)c2)ncc1C(=O)Nc1cccc(C(C)(F)F)c1 [Compound 120, N-(3-(1,1-difluoroethyl)phenyl)-2-(4-(difluoromethoxy)-3-(pyridin-2-yl)phenyl)-4-methylpyrimidine-5-carboxamide] | > 100 nM
5 | Cc1ncc(-c2ccc(OC(F)F)c(-c3ccccc3)c2)nc1C(=O)Nc1cccc(C(C)(F)F)c1 [Compound 118, N-[3-(1,1-difluoroethyl)phenyl]-6-[4-(difluoromethoxy)-3-phenyl-phenyl]-3-methyl-pyrazine-2-carboxamide] | > 100 nM
6 | CCC(F)(F)c1cccc(NC(=O)c2cc(-c3ccc(OC(F)F)c(-c4ccccc4)c3)[nH]c2C)c1 [Compound 217, 5-[4-(difluoromethoxy)-3-phenyl-phenyl]-N-[3-(1,1-difluoropropyl)phenyl]-2-methyl-1H-pyrrole-3-carboxamide] | > 100 nM
7 | CCC(F)(F)c1cccc(NC(=O)c2c(C)[nH]c3cc(OC)ccc3c2=O)c1 [Compound 273, N-(3-(1,1-difluoropropyl)phenyl)-7-methoxy-2-methyl-4-oxo-1,4-dihydroquinoline-3-carboxamide] | 1 to 100 nM
8 | CC1=NN(c2ccc(C=C(c3ccccc3)c3ccccc3)c(-c3cccnc3)c2)C(=O)C1C(=O)Nc1cccc(C(C)(F)F)c1 (centres unmarked) [Compound 109] | 1 to 100 nM
9 | 1-(4-(difluoromethoxy)phenyl)-3-methyl-4-(1-((4-(methylsulfonyl)phenyl)amino)-1H-1,2,3-triazol-4-yl)-1H-pyrazol-5(4H)-one [Compound 195] | > 100 nM
10 | CCC(F)(F)c1cccc(NC(=O)c2nc(-c3ccc(OC(F)F)c(-c4ccccn4)c3)oc2C)c1 [Compound 259, 2-(4-(difluoromethoxy)-3-(pyridin-2-yl)phenyl)-N-(3-(1,1-difluoropropyl)phenyl)-5-methyloxazole-4-carboxamide] | > 100 nM
11 | N-(3-(1,1-difluoroethyl)phenyl)-2-(6-(difluoromethoxy)-[1,1′-biphenyl]-3-yl)-4-methyloxazole-5-carboxamide [Compound 115] | > 100 nM
12 | CCC(F)(F)c1cccc(NC(=O)c2c(C)[nH]c3ccc(OC)cc3c2=O)c1 [Compound 272, N-(3-(1,1-difluoropropyl)phenyl)-6-methoxy-2-methyl-4-oxo-1,4-dihydroquinoline-3-carboxamide] | 1 to 100 nM
13 | CCC(F)(F)c1cccc(NC(=O)C2C(=O)N(c3cc(Cc4ccccc4)c(OC)c(-c4ccccc4)c3)N=C2C)c1 (centres unmarked) [Compound 121, 1-(5-benzyl-6-methoxy-[1,1′-biphenyl]-3-yl)-N-(3-(1,1-difluoropropyl)phenyl)-3-methyl-5-oxo-4,5-dihydro-1H-pyrazole-4-carboxamide] | 1 to 100 nM
14 | COc1c(CC2CCCCC2)cc(N2N=C(C)C(C(=O)Nc3cccc(C(C)(F)F)c3)C2=O)cc1-c1ccccc1 (centres unmarked) [Compound 129, 1-(5-(cyclohexylmethyl)-6-methoxy-[1,1′-biphenyl]-3-yl)-N-(3-(1,1-difluoroethyl)phenyl)-3-methyl-5-oxo-4,5-dihydro-1H-pyrazole-4-carboxamide] | 1 to 100 nM
15 | COc1c(Cc2ccc(Cl)cc2)cc(N2N=C(C)C(C(=O)Nc3cccc(C(C)(F)F)c3)C2=O)cc1-c1ccccc1 (centres unmarked) [Compound 224, 1-(5-(4-chlorobenzyl)-6-methoxy-[1,1’-biphenyl]-3-yl)-N-(3-(1,1-difluoroethyl)phenyl)-3-methyl-5-oxo-4,5-dihydro-1H-pyrazole-4-carboxamide] | 1 to 100 nM

Other lines, results leading:

Row | IC50 | Molecule
16 | 1 to 100 nM | COc1c(C(=O)Nc2cccc(C(C)(F)F)c2)c(C)nn1-c1ccc(OC(F)F)cc1 [Compound 199, N-(3-(1,1-difluoroethyl)phenyl)-1-(4-(difluoromethoxy)phenyl)-5-methoxy-3-methyl-1H-pyrazole-4-carboxamide]
17 | > 100 nM | CCC(F)(F)c1cccc(NC(=O)c2cc(-c3ccc(OC(F)F)cc3)[nH]c2C)c1 [Compound 216, 5-[4-(difluoromethoxy)phenyl]-N-[3-(1,1-difluoropropyl)phenyl]-2-methyl-1H-pyrrole-3-carboxamide]
18 | 1 to 100 nM | CCC(F)(F)c1cccc(NC(=O)c2c(C)nn(-c3ccc(OC)cc3)c2F)c1 [Compound 229, N-(3-(1,1-difluoropropyl)phenyl)-5-fluoro-1-(4-methoxyphenyl)-3-methyl-1H-pyrazole-4-carboxamide]
19 | 1 to 100 nM | Cc1nn(-c2ccc(OC(F)F)c(-c3ccccc3)c2)c(C)c1C(=O)Nc1cccc(C(C)(F)F)c1 [Compound 178]
20 | > 100 nM | CC(F)(F)c1cccc(NC(=O)c2cnc(-c3ccc(OC(F)F)cc3)nc2)c1 [Compound 173, N-(3-(1,1-difluoroethyl)phenyl)-2-(4-(difluoromethoxy)phenyl)pyrimidine-5-carboxamide]
21 | > 100 nM | CC1=NN(c2ccc(OC(F)F)cc2)C(=O)C1(C)C(=O)Nc1cccc(C(C)(F)F)c1 (centres unmarked) [Compound 174, N-(3-(1,1-difluoroethyl)phenyl)-1-(4-(difluoromethoxy)phenyl)-3,4-dimethyl-5-oxo-4,5-dihydro-1H-pyrazole-4-carboxamide]
22 | 1 to 100 nM | Cc1cc(C(=O)Nc2cccc(C(C)(F)F)c2)nc(-c2ccc(OC(F)F)cc2)n1 [Compound 147, N-(3-(1,1-difluoroethyl)phenyl)-2-(4-(difluoromethoxy)phenyl)-6-methylpyrimidine-4-carboxamide]
23 | > 100 nM | CCC(F)(F)c1cccc(NC(=O)c2c(C)oc(-c3ccc(OC)cc3)[n+]2[O-])c1 [Compound 250, 4-((3-(1,1-difluoropropyl)phenyl)carbamoyl)-2-(4-methoxyphenyl)-5-methyloxazole 3-oxide]
24 | > 100 nM | CCCC1(C(=O)Nc2cccc(C(C)(F)F)c2)C(=O)N(c2ccc(OC(F)F)c(-c3ccccc3)c2)N=C1C (centres unmarked) [Compound 111, N-(3-(1,1-difluoroethyl)phenyl)-1-(6-(difluoromethoxy)-[1,1′-biphenyl]-3-yl)-3-methyl-5-oxo-4-propyl-4,5-dihydro-1H-pyrazole-4-carboxamide]
25 | > 100 nM | Cc1nn(-c2ccc(OC(F)F)cc2)c(C(C)C)c1C(=O)Nc1cccc(C(C)(F)F)c1 [Compound 146, N-[3-(1,1-difluoroethyl)phenyl]-1-[4-(difluoromethoxy)phenyl]-5-isopropyl-3-methyl-pyrazole-4-carboxamide]
26 | > 100 nM | CCc1c(C(=O)Nc2cccc(C(C)(F)F)c2)c(C)nn1-c1ccc(OC(F)F)c(-c2ccccc2)c1 [Compound 151, N-[3-(1,1-difluoroethyl)phenyl]-1-[4-(difluoromethoxy)-3-phenyl-phenyl]-5-ethyl-3-methyl-pyrazole-4-carboxamide]
27 | > 100 nM | Cc1nc(-c2ccc(OC(F)F)cc2)cnc1C(=O)Nc1cccc(C(C)(F)F)c1 [Compound 133, N-(3-(1,1-difluoroethyl)phenyl)-5-(4-(difluoromethoxy)phenyl)-3-methylpyrazine-2-carboxamide]
28 | > 100 nM | CC1=NN(c2ccc(OC(F)F)cc2)C(=O)[C@@]1(C)C(=O)Nc1cccc(C(C)(F)F)c1 [Compound 169, (4R)—N-(3-(1,1-difluoroethyl)phenyl)-1-(4-(difluoromethoxy)phenyl)-3,4-dimethyl-5-oxo-4,5-dihydro-1H-pyrazole-4-carboxamide]
29 | > 100 nM | Cc1nc(-c2ccc(OC(F)F)cc2)oc1C(=O)Nc1cccc(C(C)(F)F)c1 [Compound 141, N-(3-(1,1-difluoroethyl)phenyl)-2-(4-(difluoromethoxy)phenyl)-4-methyloxazole-5-carboxamide]
30 | > 100 nM | Cc1nc(-c2ccc(OC(F)F)c(-c3ccccc3)c2)ncc1C(=O)Nc1cccc(C(C)(F)F)c1 [Compound 139, N-[3-(1,1-difluoroethyl)phenyl]-2-[4-(difluoromethoxy)-3-phenyl-phenyl]-4-methyl-pyrimidine-5-carboxamide]
31 | 1 to 100 nM | Cc1nn(-c2ccc(OC(F)F)cc2)c(C2CC2)c1C(=O)Nc1cccc(C(C)(F)F)c1 [Compound 145, 5-cyclopropyl-N-[3-(1,1-difluoroethyl)phenyl]-1-[4-(difluoromethoxy)phenyl]-3-methyl-pyrazole-4-carboxamide]
32 | > 100 nM | Cc1oc(-c2ccc3cc[nH]c3c2)nc1C(=O)Nc1cccc(C(C)(F)F)c1 [Compound 107, N-[3-(1,1-difluoroethyl)phenyl]-2-(1H-indol-6-yl)-5-methyl-oxazole-4-carboxamide]
33 | 1 to 100 nM | CCC(F)(F)c1cccc(NC(=O)c2cc(C)nc(-c3ccc(OC(F)F)cc3)n2)c1 [Compound 137, 2-(4-(difluoromethoxy)phenyl)-N-(3-(1,1-difluoropropyl)phenyl)-6-methylpyrimidine-4-carboxamide]
34 | 1 to 100 nM | Cc1cc(C(=O)Nc2cccc(C(C)(F)F)c2)nc(-c2ccc(OC(F)F)c(-c3ccccc3)c2)n1 [Compound 130, N-(3-(1,1-difluoroethyl)phenyl)-2-(6-(difluoromethoxy)-[1,1′-biphenyl]-3-yl)-6-methylpyrimidine-4-carboxamide]
35 | < 1 nM | CC1=NN(c2ccc(OC(C)C)cc2)C(=O)C1(F)C(=O)Nc1cccc(C(C)(F)F)c1 (centres unmarked) [Compound 208, N-(3-(1,1-difluoroethyl)phenyl)-4-fluoro-1-(4-isopropoxyphenyl)-3-methyl-5-oxo-4,5-dihydro-1H-pyrazole-4-carboxamide]
